Data on 5 compounds can be found in patent publication US9518046B2 (Calitor Sciences, LLC, priority 2015, dated 2016).

Data set [1] is described as follows: Pharmacokinetics after intravenous and oral administration in monkeys. Conditions: Monkey; iv dosing 1 mg/kg. Type of data set: in vivo. On the procedure: (§1) The LC/MS/MS system used in the analysis consists of an Agilent 1200 Series vacuum degasser, binary pump, well-plate autosampler, thermostatted column compartment, the Agilent G6430 Triple Quadrupole Mass Spectrometer with an electrosprayionization (ESI) source. Quantitative analysis was carried out using MRM mode. The parameters for MRM transitions are in the Table A.
(§2) An Agilent XDB-C18, 2.1×30 mm, 3.5 M column was used for the analysis. 5 L of the samples were injected. Analysis condition: The mobile phase was 0.1% formic acid in water (A) and 0.1% formic acid in methanol (B). The flow rate was 0.4 mL/min. And the gradient of Mobile phase was in the Table B.
(§3) Alternatively, an Agilent 6330 series LC/MS/MS spectrometer equipped with G1312A binary pumps, a G1367A autosampler and a G1314C UV detector were used in the analysis. An ESI source was used on the LC/MS/MS spectrometer. The analysis was done in positive ion mode as appropriate and the MRM transition for each analyte was optimized using standard solution. A Capcell MP-C18 100×4.6 mm I.D., […] column (Phenomenex, Torrance, Calif., USA) was used during the analysis. The mobile phase was 5 mM ammonia acetate, 0.1% MeOH in water (A): 5 mM ammonia acetate, 0.1% MeOH in acetonitrile (B) (70:30, v/v). The flow rate was 0.6 mL/min. Column was maintained at ambient temperature. 20 μL of the samples were injected.
(§4) The compounds disclosed herein are assessed in pharmacokinetic studies in mice, rats, dogs or monkeys. The compounds are administered as a water solution, 2% HPMC+1% TWEEN®80 in water solution, 5% DMSO+5% solutol in saline, 4% MC suspension or capsule. For the intravenous administration, the animals are generally given at 1 or 2 mg/kg dose. For the oral (p.o.) dosing, mice and rats are generally given 5 or 10 mg/kg dose, and dogs and monkeys are generally given 10 mg/kg dose. […] The plasma solutions are collected, stored at −20° C. or −70° C. until analyzed by LC/MS/MS as described above.

A short description of data set [2]: Pharmacokinetics after intravenous and oral administration in rats. As to conditions: Rats; iv dosing; dose 1 mg/kg (0.5 for Ex. 1, 10, 11, 35; 0.48 for Ex. 24). Type of data set: in vivo. In short, it runs like this:
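Dosing used solution, suspension or capsule formulations: 1 or 2 mg/kg IV in all species; PO 5 or 10 mg/kg in mice and rats, 10 mg/kg in dogs and monkeys. Plasma sampled from 0.083 or 0.25 h up to 24 h post-dose; concentrations determined by LC/MS/MS in MRM mode.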

A short description of data set [3]: Pharmacokinetics after intravenous and oral administration in dogs. Format: in vivo. Conditions: Dog; iv dosing 1 mg/kg. Here is the method: as §1, §2, §3, §4
Data set [4] in a line: Pharmacokinetics after intravenous and oral administration in mice. Type of data set: in vivo. Conditions: Mouse; iv dosing 1 mg/kg. Here is the method:
as §1, §2
Alternatively, an Agilent 6330 series LC/MS/MS spectrometer equipped with G1312A binary pumps, a G1367A autosampler and a G1314C UV detector were used in the analysis. An ESI source was used on the LC/MS/MS spectrometer. The analysis was done in positive ion mode as appropriate and the MRM transition for each analyte was optimized using standard solution. A Capcell MP-C18 100×4.6 mm I.D., […] column (Phenomenex, Torrance, Calif., USA) was used during the analysis. […]
The compounds disclosed herein are assessed in pharmacokinetic studies in mice, rats, dogs or monkeys. […] The plasma solutions are collected, stored at −20° C. or −70° C. until analyzed by LC/MS/MS as described above.

The next data set concerns protein kinases. As to conditions: literature; cited from earlier work.
The conditions of data set [5]: murine model of asthma, ovalbumin-induced airway inflammation; literature; cited from earlier work.
The subject of another data set is PI3Kδ. As to conditions: literature; cited from earlier work.
The conditions of data set [6]: literature; cited from earlier work.
For data set [7] the following is noted: literature; cited from earlier work. The source holds these as a separate data set.

Molecules are shown by their SMILES.

As for `CC[C@H](Nc1ncnc(N)c1-c1nc(C)no1)c1nc2cccc(Cl)c2c(=O)n1C1CC1` [Ex. 4, (S)-2-(1-((6-amino-5-(3-methyl-1,2,4-oxadiazol-5-yl)pyrimidin-4-yl)amino)-propyl)-5-chloro-3-cyclopropylquinazolin-4(3H)-one], the apparent clearance CL/F came out at 11.6 mL/min/kg in [1], 21.5 mL/min/kg in [2] and 9.67 mL/min/kg in [3].

As for `Cc1noc(-c2c(N)ncnc2N[C@@H](C)c2nc3cccc(Cl)c3c(=O)n2-c2ccccc2)n1` [Ex. 65, (S)-2-(1-((6-amino-5-(3-methyl-1,2,4-oxadiazol-5-yl)pyrimidin-4-yl)amino)ethyl)-5-chloro-3-phenylquinazolin-4(3H)-one], the CL/F in data set [1] stood at 15.3 mL/min/kg; in data set [4], 31.7 mL/min/kg; in data set [3] it was 6.17 mL/min/kg.

With `Cc1nnc(-c2c(N)ncnc2N[C@@H](C)c2nc3cccc(Cl)c3c(=O)n2-c2ccccc2)o1` [Ex. 64, (S)-2-(1-((6-amino-5-(5-methyl-1,3,4-oxadiazol-2-yl)pyrimidin-4-yl)amino)ethyl)-5-chloro-3-phenylquinazolin-4(3H)-one], the CL/F in data set [1] was 7.17 mL/min/kg; in data set [4], 18.8 mL/min/kg; in data set [2], 28.3 mL/min/kg; in data set [3], 1.83 mL/min/kg.

As to `Cc1ccccc1-n1c(Cn2cnc3c(N)ncnc32)nc2cccc(C)c2c1=O` [IC87114], the “activity against any protein kinases tested” value with protein kinases was “no activity”. In [5], the “effect on inflammation and disease” value was “significantly ameliorate inflammation and disease”. Moreover, the “inhibits PI3Kδ” value in the data set on PI3Kδ is “high nanomolar range (triple digit)”.

With `O=C1NC(=O)/C(=C\c2ccc3nccnc3c2)S1` [AS 605240], the “effect on onset of disease in model of systemic lupus erythematosis” value in data set [6] is “delay onset of disease”. In addition, the “efficacy in mouse model of rheumatoid arthritis” value in data set [7] is on record as “efficacious”.

One may read the CL/F as the apparent clearance, not corrected for the fraction that reaches the circulation.
